Experimental data: patent US20250026741A1, “INHIBITORS OF THE ONCOGENIC SHP2 PHOSPHATASE AND USES THEREOF” (Sanford Burnham Prebys Medical Discovery Institute, priority 2021, published 2025)

Legend:
Assay type in all cases: biochemical
[1] = target: full-length SHP2-E76K oncogenic mutant (Homo sapiens (Human), UniProt Q06124, E76K); assay: DiFMUP fluorescence intensity phosphatase inhibition assay, SHP2-E76K; details: DiFMUP at Km (20 μM), 10-point dose-response; read-out: SHP2-E76K IC50
Excerpt: (§1) To test the synthesized compounds for their potential to inhibit SHP2 activity, a fluorescence intensity-based assay using 6,8-difluoro-4-methylumbelliferyl phosphate (DiFMUP) as the substrate was adapted for three recombinant SHP2 constructs: 1) the SHP2 catalytic domain (SHP2cat; residues 248-527), 2) the full-length SHP2-E76K oncogenic mutant, and 3) the full-length SHP2 wild-type (SHP2-WT). The recombinant SHP2 proteins were expressed and purified. A dually phosphorylated peptide derived from the insulin receptor substrate 1 (IRS-1) served as a surrogate binding protein and was used to activate SHP2-WT. […] Michaelis-Menten experiments to determine the DiFMUP Michaelis-Menten constant (Kmn) for each SHP2 construct were performed and yielded the following values: SHP2-WT, Km=60 μM; SHP2-E76K, Km=20 μM; SHP2cat, Km=20 μM. Relative maximum rates (Vmax) of the DiFMUP reactions were as follows: SHP2-WT, Vmax=871 AFU/min; SHP2-E76K, Vmax, =2730 AFU/min; SHP2cat, Vmax=2912 AFU/min. IC50 values for each compound were determined from initial rates in 10-point dose-response assays using DiFMUP at a concentration corresponding to its Km value for the respective SHP2 construct.
(§2) SHP2 inhibitors were tested at room temperature (RT) in a 384-well plate format standard phosphatase fluorescence intensity assay using DiFMUP (Invitrogen/Thermo Fisher Scientific, Carlsbad, CA) as a substrate and a total reaction volume of 25 μL. SHP2 inhibitors or vehicle (DMSO) were spotted in triplicate into a black Greiner FLUOTRAC™ 200 384-well microplate (#781076, Greiner) for a 10-point dose-response assay using an Echo®555 Liquid Handler (Labcyte, Inc., San Jose, CA). PTP working solutions were prepared at a 0.625 nM concentration (for a final concentration of 0.5 nM) in buffer containing 50 mM Bis-Tris pH 6.0, 50 mM NaCl, 5 mM DTT, and 0.01% Tween® 20. Prior to the assay, a dually phosphorylated insulin receptor substrate 1 (IRS-1) peptide [625 nM (500 nMfinal) (30)] was added to full-length WT SHP2 working solutions and incubated for 20 min. DiFMUP working solutions at 5× final concentration were prepared in 50 mM Bis-Tris pH 6.0, 50 mMNaCl, and 0.01% Tween 20. 20 μL of PTP working solution was dispensed into the microplate and incubated with inhibitor for 20 min at RT. […] The reaction was initiated by addition of 5 μL DiFMUP working solutions. Fluorescence intensity was measured in kinetic mode (every minute for 7 or 10 min) using a Tecan Spark® Multimode Microplate Reader (Tecan, Groedig, Austria) with an excitation wavelength of 360 nm and an emission wavelength of 460 nm. The initial rates were determined from the linear progression curves of the PTP reaction. The nonenzymatic hydrolysis of the substrate was corrected by using a control without addition of enzyme. IC50 values were calculated from the corrected initial rates by nonlinear regression using the program GraphPad Prism (GraphPad Software, Inc., San Diego, CA) Version 8. Dose-response inhibition assays of SHP2cat using the substrate OMFP were performed similarly as described above for DiFMUP. OMFP was used at a concentration corresponding to its Km value for SHP2cat (50 μM final). Fluorescence intensity was measured in kinetic mode (every minute for 10 min) using a Tecan Spark Multimode Microplate Reader with an excitation wavelength of 485 nm and an emission wavelength of 535 nm. Initial rates were determined and IC50 vales calculated as described above.

[2] = target: full-length SHP2 wild-type (SHP2-WT) (Homo sapiens (Human), UniProt Q06124); assay: DiFMUP fluorescence intensity phosphatase inhibition assay, SHP2-WT activated with IRS-1 peptide; details: DiFMUP at Km (60 μM), IRS-1 peptide activated
Excerpt: as §1, §2

[3] = target: SHP2 catalytic domain (SHP2cat; residues 248-527) (Homo sapiens (Human), UniProt Q06124); assay: DiFMUP fluorescence intensity phosphatase inhibition assay, SHP2cat; details: DiFMUP at Km (20 μM); read-out: SHP2cat IC50
Excerpt: as §1, §2

SHP2 catalytic domain (SHP2cat; residues 248-527), sequence (Q06124 248-527): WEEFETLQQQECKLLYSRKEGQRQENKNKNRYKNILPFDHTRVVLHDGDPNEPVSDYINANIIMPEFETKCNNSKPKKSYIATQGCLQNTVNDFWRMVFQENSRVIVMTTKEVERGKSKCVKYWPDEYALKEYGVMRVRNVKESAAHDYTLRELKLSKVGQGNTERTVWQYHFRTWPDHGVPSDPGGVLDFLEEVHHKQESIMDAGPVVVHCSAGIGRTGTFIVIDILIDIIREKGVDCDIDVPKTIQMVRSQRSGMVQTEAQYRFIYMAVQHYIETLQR
full-length SHP2-E76K oncogenic mutant, sequence (Q06124 whole entry E76K, the tested form may be a part): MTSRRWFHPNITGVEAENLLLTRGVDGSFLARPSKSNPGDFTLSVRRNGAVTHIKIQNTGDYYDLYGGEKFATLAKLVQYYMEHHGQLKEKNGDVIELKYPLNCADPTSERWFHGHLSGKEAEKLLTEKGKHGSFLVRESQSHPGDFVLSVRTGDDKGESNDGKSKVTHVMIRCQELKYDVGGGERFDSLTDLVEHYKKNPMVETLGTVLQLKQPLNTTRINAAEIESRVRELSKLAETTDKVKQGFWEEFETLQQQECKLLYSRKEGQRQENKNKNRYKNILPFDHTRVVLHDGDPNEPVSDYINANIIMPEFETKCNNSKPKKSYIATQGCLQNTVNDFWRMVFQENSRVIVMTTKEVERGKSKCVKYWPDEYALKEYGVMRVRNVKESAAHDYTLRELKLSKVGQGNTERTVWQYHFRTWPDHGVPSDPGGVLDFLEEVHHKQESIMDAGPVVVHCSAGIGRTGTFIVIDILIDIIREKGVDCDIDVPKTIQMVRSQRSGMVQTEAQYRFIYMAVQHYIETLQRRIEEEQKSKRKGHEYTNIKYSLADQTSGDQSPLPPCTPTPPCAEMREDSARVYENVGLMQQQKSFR

Row | Structure (SMILES) | IC50 [1] [µM] | IC50 [2] [µM] | IC50 [3] [µM]
1 | O=C1/C(=C/c2ccc(-c3ccc(O)cc3)o2)Sc2ccccc21 [#17, (Z)-2-((5-(4-Hydroxyphenyl)furan-2-yl)methylene)benzo[b]thiophen-3(2H)-one] | 20 to 100 | ≥ 100 | 
2 | COc1ccc(-c2ccc(/C=C3\Sc4ccccc4C3=O)o2)cc1C(=O)Nc1ccccc1 [#18, (Z)-2-Methoxy-5-(5-((3-oxobenzo[b]thiophen-2(3H)-ylidene)methyl)furan-2-yl)-N-phenylbenzamide] | 20 to 100 | 20 to 100 | 
3 | O=C1/C(=C/c2ccc(-c3ccc(O)c(C(=O)N4CCNCC4)c3)o2)Sc2ccccc21 [#19, (Z)-2-((5-(4-Hydroxy-3-(piperazine-1-carbonyl)phenyl)furan-2-yl)methylene)benzo[b]thiophen-3(2H)-one] | 20 to 100 | ≥ 100 | 
4 | O=C(Nc1ccccc1)c1cc(-c2ccco2)ccc1O [#21, 5-(Furan-2-yl)-2-hydroxy-N-phenylbenzamide] | ≥ 100 | ≥ 100 | 
5 | O=C(NCCO)c1cc(-c2ccc(/C=C3\Sc4ccccc4C3=O)o2)ccc1O [#22, (Z)-2-Hydroxy-N-(2-hydroxyethyl)-5-(5-((3-oxobenzo[b]thiophen-2(3H)-ylidene)methyl)furan-2-yl)benzamide] | ≥ 100 | ≥ 100 | 
6 | CN1CCN(C(=O)c2cc(-c3ccc(/C=C4\Sc5ccccc5C4=O)o3)ccc2O)CC1 [#23, (Z)-2-((5-(4-Hydroxy-3-(4-methylpiperazine-1-carbonyl)phenyl)furan-2-yl)methylene)benzo[b]thiophen-3(2H)-one] | ≥ 100 | ≥ 100 | 
7 | O=C(Nc1ccccc1)c1cc(-c2ccc(/C=C3\Sc4ccccc4C3=O)o2)ccc1F [#24, (Z)-2-Fluoro-5-(5-((3-oxobenzo[b]thiophen-2(3H)-ylidene)methyl)furan-2-yl)-N-phenylbenzamide] | ≥ 100 | ≥ 100 | 

More lines, now with the values ahead:

Row | IC50 [1] [µM] | IC50 [2] [µM] | IC50 [3] [µM] | Structure (SMILES)
8 | 1 to 20 | 1 to 20 | 1 to 20 | O=C1/C(=C/c2ccc(-c3ccc(O)c(-c4nn[nH]n4)c3)o2)Sc2ccccc21 [#04, (Z)-2-((5-(4-Hydroxy-3-(2H-tetrazol-5-yl)phenyl)furan-2-yl)methylene)benzo[b]thiophen-3(2H)-one]
9 | 1 to 20 | 20 to 100 | 1 to 20 | O=C1CCC/C1=C\c1ccc(-c2ccc(O)c(C(=O)O)c2)o1 [#06, 2-Hydroxy-5-(5-((2-oxocyclopentylidene)methyl)furan-2-yl)benzoic acid]
10 | 1 to 20 | 1 to 20 | 1 to 20 | O=C(O)c1cc(-c2ccc(/C=C3\Oc4ccccc4C3=O)o2)ccc1O [#07, (Z)-2-Hydroxy-5-(5-((3-oxobenzofuran-2(3H)-ylidene)methyl)furan-2-yl)benzoic acid]
11 | 1 to 20 | 1 to 20 | 1 to 20 | Nc1cccc(NC(=O)c2cc(-c3ccc(/C=C4\Sc5ccccc5C4=O)o3)ccc2O)c1 [#08, (Z)—N-(3-aminophenyl)-2-hydroxy-5-(5-((3-oxobenzo[b]thiophen-2(3H)-ylidene)methyl)furan-2-yl)benzamide]
12 | 1 to 20 | 1 to 20 | 1 to 20 | O=C(O)c1cc(-c2ccc(/C=C3\Cc4ccccc4C3=O)o2)ccc1O [#09, 2-Hydroxy-5-(5-((1-oxo-1,3-dihydro-2H-inden-2-ylidene)methyl)furan-2-yl)benzoic acid]
13 | 1 to 20 | 1 to 20 | 1 to 20 | O=C(NNc1ccccc1)c1cc(-c2ccc(/C=C3\Sc4ccccc4C3=O)o2)ccc1O [#11, (Z)-2-Hydroxy-5-(5-((3-oxobenzo[b]thiophen-2(3H)-ylidene)methyl)furan-2-yl)-N′-phenylbenzohydrazide]
14 | 1 to 20 | 20 to 100 |  | CC(C)NC(=O)c1cc(-c2ccc(/C=C3\Sc4ccccc4C3=O)o2)ccc1O [#13, (Z)-2-Hydroxy-N-isopropyl-5-(5-((3-oxobenzo[b]thiophen-2(3H)-ylidene)methyl)furan-2-yl)benzamide]
15 | 20 to 100 | 20 to 100 |  | O=C1CCCC/C1=C\c1ccc(-c2ccc(O)c(C(=O)O)c2)o1 [#14, 2-Hydroxy-5-(5-((2-oxocyclohexylidene)methyl)furan-2-yl)benzoic acid]
16 | 20 to 100 | 20 to 100 |  | O=C(Nc1ccccc1)c1cccc(-c2ccc(/C=C3\Sc4ccccc4C3=O)o2)c1 [#15, (Z)-3-(5-((3-Oxobenzo[b]thiophen-2(3H)-ylidene)methyl)furan-2-yl)-N-phenylbenzamide]
17 | 20 to 100 | ≥ 100 |  | O=C(NCc1ccccc1)c1cccc(-c2ccc(/C=C3\Sc4ccccc4C3=O)o2)c1 [#16, (Z)—N-Benzyl-3-(5-((3-oxobenzo[b]thiophen-2(3H)-ylidene)methyl)furan-2-yl)benzamide]
